# In patent US20240358862A1, “Synthesis Method and Application of a Near-infrared Probe GGa-ICG specific binding to PSCA” (Guangzhou Shiyun Biotechnology Co., Ltd, priority 2022, published 2024):
# How the values were obtained:
# [1] = tested on: prostate cancer cell lines; assay: Cell binding by fluorescence microscope / flow cytometry; type: cell-based, human; details: 200 nM probe
# Procedure: (§1) Therefore, 200 nM of GGa-ICG and ssDNA-ICG were used to confirm their specific binding. The method is as follows: • a. The human prostate cancer cell lines PC-3, DU145, LNCaP, 22RV1, immortalized normal human prostate epithelial cell line RWPE1, and human cervical cancer cell line Hela, as well as MCF7 cells obtained from the American Type Culture Collection (ATCC), were used in this study. All cell lines were cultured at 37° C. and 5% CO2 in a humidified environment. […]
# (§2) After the cells reach a confluency of over 80%, they were passaged and grown for 24-48 hours until they reached a confluency of over 50%. They were then washed once with PBS (without Ca and Mg ions), twice with cold washing buffer, and incubated at room temperature (4° C. for the internalization inhibition group) for 30 minutes with the sample buffer containing near-infrared fluorescence probes GGa-ICG, ssDNA-ICG, and ICG to a final concentration of 200 nM (or as specified). The cells were observed under a fluorescence microscope or analyzed by flow cytometry after digestion with trypsin without EDTA. […]
# [2] = tested on: prostate cancer lesions (PC-3 xenograft); assay: In vivo imaging in PC-3 mouse xenograft model; parameters: species or system BALB/c nude mice
# Procedure: Male BALB/c nude mice (BALB/c-nude) were purchased from Beijing SLAC Laboratory Animal Co., Ltd. Five-week-old nude mice were subcutaneously injected with 5×10^6 PC-3 cells on the back. The tumor was allowed to grow for 15 to 20 days until it reached a diameter of 0.5-1.5 cm. The BALB/c nude mice bearing tumors were anesthetized with sedatives and anesthetics. Once the mice were immobilized, a designated dose (0.1 mg, 0.5 mg, 1 mg, 2 mg per injection) of GGa-ICG or ssDNA-ICG was injected through the tail vein. At certain time points, fluorescent images of live mice were collected using the IVIS Lumina II in vivo imaging system. For ex vivo fluorescent experiments, tumor-bearing mice that were intravenously injected with GGa-ICG or ssDNA-ICG were euthanized by cervical dislocation 1 hour after injection under anesthesia. After dissection, organs including brain, liver, kidney, spleen, lung, heart, and tumor tissue were imaged using the IVIS Lumina II in vivo imaging system as described above.
# RWPE-1, MCF2, Hela cells = assay: Cell binding by fluorescence microscope / flow cytometry, non-tumour prostate and other cells; type: cell-based, human; details: 200 nM probe
# Procedure: as §1, §2
# PC-3 cells [3] = assay: Endocytosis experiment; type: cell-based, human; details: 37° C. vs 4° C., trypsin wash
# Procedure: PC-3 cells were incubated with 200 nM GGa-ICG or ssDNA-ICG in 200 μL binding buffer at 37° C. for 10 minutes to observe cell membrane binding. After 2 hours of incubation, the cells were treated with 0.25% trypsin or 0.1 mg/mL proteinase K at 37° C. for 10 minutes to observe internal binding.
# For inhibition of endocytosis, PC-3 cells were incubated with 200 nM GGa-ICG or ssDNA-ICG in 200 μL binding buffer at 4° C. for 2 hours to observe cell membrane binding. After 4 hours of incubation, the cells were treated with 0.25% trypsin or 0.1 mg/mL proteinase K at 37° C. for 10 minutes to observe internal binding.
# PC-3 cells [4] = assay: Affinity detection by flow cytometry; type: binding, human; details: PC3 cells, 0-500 nM, 37° C., read-out: dissociation constant
# Procedure: To test the affinity of different GGa-ICG aptamers for PC-3 cells, aptamers at different concentrations (0, 10, 20, 50, 100, 200, 500 nM) are incubated with 2×10^5 cells at 37° C. After digestion into a cell suspension, flow cytometry was used for analysis. The average fluorescence intensity of the background was subtracted from that of each sample. The equilibrium dissociation constant (Kd) for aptamer-cell interactions is calculated using SigmaPlot software.
# [5] = tested on: subcutaneous transplantation tumor models; assay: In vivo visualization in subcutaneous transplantation tumor models of other cancers
# Text: PSCA is expressed at high levels in various tumors such as prostate cancer, bladder cancer, kidney cancer, breast cancer, colon cancer, lung cancer, pancreatic cancer, etc. Using the aforementioned method, T24 bladder cancer cells, Cakil renal cancer cells, MDA-MB468 breast cancer cells, HT29 colon cancer cells, PANC1 pancreatic cancer cells, NCI-H460 lung cancer cells, and other cell lines were stained with GGa-ICG for flow cytometry analysis. Positive cell lines were used to establish subcutaneous transplantation tumor models to detect the visualization of GGa-ICG in vivo.
# [6] = doses of 0.1-2 mg/animal, tail vein
substance,measurement,setting,value
"GGa-ICG: near-infrared probe: PSCA-binding nucleic acid aptamer GGa linked at 3′ to an ICG derivative dye (DNA TGCCACTACAGCTGGTTCGGTTTGGTGACTTCGTTCTTCGTTGTGGT; 3'-ICG dye, further chemistry not given here)","binding affinity of PC3, VCap and LNCap cell lines relative to DU-145, 22RV1 cells",[1],stronger
same,specific binding to prostate cancer cell lines,[1],could specifically bind
same,time of optimal detection after injection,[2]; [6],8 to 12 h
same,time until which detection lasted,[2]; [6],24 to 48 h
same,binding to prostate cancer lesions in vivo,"[2]; intravenous injection, at 2, 4, and 8 hours",specifically bound
same,metabolism pathway,"[2]; mouse, in vivo",partially metabolized via the liver and kidney pathways
same,time within which probe in the organs was essentially metabolized,[2]; organs of tumor-bearing mice,≤ 24 h
same,"binding affinity to RWPE-1, MCF2, Hela cells","RWPE-1, MCF2, Hela cells",significantly reduced binding affinity
same,mode of cell entry,PC-3 cells [3],enters cells through endocytosis
same,Kd,PC-3 cells [4],54.9 nM
same,in vivo binding in multiple cancer types,[5],consistent with PSCA expression
